Species: Rattus norvegicus
Assay: DrugMatrix - Regimen: Daily Repeat
Assay type: toxicity, organism-based, Sprague-Dawley
Set-up: regimen Daily Repeat, gender Male, age 6-8 weeks
Conditions: in vivo, po, route oral GAVAGE, vehicle 100 % WATER; for ABSOLUTE BASOPHIL / ABSOLUTE EOSINOPHIL / ABSOLUTE LYMPHOCYTE / ABSOLUTE MONOCYTE / ABSOLUTE SEGMENTED NEUTROPHIL / BASOPHIL / EOSINOPHIL / ERYTHROCYTE COUNT / HEMATOCRIT / HEMOGLOBIN / LEUKOCYTE COUNT / LYMPHOCYTE / MEAN CORPUSCULAR HEMOGLOBIN / MEAN CORPUSCULAR HEMOGLOBIN CONCENTRATION / MEAN CORPUSCULAR VOLUME / MONOCYTE / NEUTROPHIL / NUCLEATED RED BLOOD CELLS / PLATELET COUNT: tissue Blood; for ALANINE AMINOTRANSFERASE / ALBUMIN / ALKALINE PHOSPHATASE / ASPARTATE AMINOTRANSFERASE / BLOOD UREA NITROGEN / CARBON DIOXIDE / CHLORIDE / CHOLESTEROL / CREATINE PHOSPHOKINASE / CREATININE / GLUCOSE / LACTATE DEHYDROGENASE / LIPASE / PHOSPHORUS / POTASSIUM / SODIUM / TOTAL BILIRUBIN / TOTAL PROTEIN / URIC ACID: tissue Plasma
[1] = 1 mg/kg, 120 h, dose level Low, time 5 day
[2] = 175 mg/kg, 72 h, dose level High, time 3 day
[3] = 175 mg/kg, 120 h, dose level High, time 5 day

CN1C2CCCC1CC(NC(=O)c1nn(C)c3ccccc13)C2 (centres undefined) [GRANISETRON]
ABSOLUTE BASOPHIL [1]: 0 CELLS/uL
ABSOLUTE EOSINOPHIL [1]: 0 CELLS/uL
ABSOLUTE LYMPHOCYTE [1]: 8153 CELLS/uL
ABSOLUTE MONOCYTE [1]: 97.67 CELLS/uL
ABSOLUTE SEGMENTED NEUTROPHIL [1]: 549.33 CELLS/uL
BASOPHIL [1]: 0%
EOSINOPHIL [1]: 0%
ERYTHROCYTE COUNT [1]: 5.09 x10E6/uL
HEMATOCRIT [1]: 31.63%
HEMOGLOBIN [1]: 12.5 G/DL
LEUKOCYTE COUNT [1]: 8.8 x10E3/uL
LYMPHOCYTE [1]: 92.67%
MEAN CORPUSCULAR HEMOGLOBIN [1]: 24.53 pg
MEAN CORPUSCULAR HEMOGLOBIN CONCENTRATION [1]: 39.6 G/DL
MEAN CORPUSCULAR VOLUME [1]: 62.03 fL
MONOCYTE [1]: 1%
NEUTROPHIL [1]: 6.33%
NUCLEATED RED BLOOD CELLS [1]: 0.67 /100WBC
PLATELET COUNT [1]: 832 x10E3/uL
ALANINE AMINOTRANSFERASE [1]: 51 u/L
ALBUMIN [1]: 4.2 G/DL
ALKALINE PHOSPHATASE [1]: 374 u/L
ASPARTATE AMINOTRANSFERASE [1]: 84.33 u/L
BLOOD UREA NITROGEN [1]: 16 mg/dL
CARBON DIOXIDE [1]: 31 mmol/L
CHLORIDE [1]: 101.67 MEQ/L
CHOLESTEROL [1]: 74.33 mg/dL
CREATINE PHOSPHOKINASE [1]: 215.67 u/L
CREATININE [1]: 0.16 mg/dL
GLUCOSE [1]: 149.33 mg/dL
LACTATE DEHYDROGENASE [1]: 154 u/L
LIPASE [1]: 9 u/L
PHOSPHORUS [1]: 10.23 mg/dL
POTASSIUM [1]: 5.82 MEQ/L
SODIUM [1]: 145 MEQ/L
TOTAL BILIRUBIN [1]: 0.23 mg/dL
TOTAL PROTEIN [1]: 6.23 G/DL
URIC ACID [1]: 0.7 mg/dL
ABSOLUTE BASOPHIL [2]: 0 CELLS/uL
ABSOLUTE EOSINOPHIL [2]: 0 CELLS/uL
ABSOLUTE LYMPHOCYTE [2]: 10622.67 CELLS/uL
ABSOLUTE MONOCYTE [2]: 19.67 CELLS/uL
ABSOLUTE SEGMENTED NEUTROPHIL [2]: 557.67 CELLS/uL
BASOPHIL [2]: 0%
EOSINOPHIL [2]: 0%
ERYTHROCYTE COUNT [2]: 5.65 x10E6/uL
HEMATOCRIT [2]: 35.33%
HEMOGLOBIN [2]: 13.77 G/DL
LEUKOCYTE COUNT [2]: 11.2 x10E3/uL
LYMPHOCYTE [2]: 93.67%
MEAN CORPUSCULAR HEMOGLOBIN [2]: 24.43 pg
MEAN CORPUSCULAR HEMOGLOBIN CONCENTRATION [2]: 38.93 G/DL
MEAN CORPUSCULAR VOLUME [2]: 62.63 fL
MONOCYTE [2]: 0.33%
NEUTROPHIL [2]: 6%
NUCLEATED RED BLOOD CELLS [2]: 0 /100WBC
PLATELET COUNT [2]: 1057.67 x10E3/uL
ALANINE AMINOTRANSFERASE [2]: 72.67 u/L
ALBUMIN [2]: 4 G/DL
ALKALINE PHOSPHATASE [2]: 502.33 u/L
ASPARTATE AMINOTRANSFERASE [2]: 95 u/L
BLOOD UREA NITROGEN [2]: 13 mg/dL
CARBON DIOXIDE [2]: 33 mmol/L
CHLORIDE [2]: 100 MEQ/L
CHOLESTEROL [2]: 75.67 mg/dL
CREATINE PHOSPHOKINASE [2]: 557.67 u/L
CREATININE [2]: 0.12 mg/dL
GLUCOSE [2]: 149.33 mg/dL
LACTATE DEHYDROGENASE [2]: 186 u/L
LIPASE [2]: 10 u/L
PHOSPHORUS [2]: 11.47 mg/dL
POTASSIUM [2]: 5.72 MEQ/L
SODIUM [2]: 145.1 MEQ/L
TOTAL BILIRUBIN [2]: 0.17 mg/dL
TOTAL PROTEIN [2]: 5.83 G/DL
URIC ACID [2]: 0.5 mg/dL
ABSOLUTE BASOPHIL [3]: 0 CELLS/uL
ABSOLUTE EOSINOPHIL [3]: 0 CELLS/uL
ABSOLUTE LYMPHOCYTE [3]: 7981.33 CELLS/uL
ABSOLUTE MONOCYTE [3]: 176.67 CELLS/uL
ABSOLUTE SEGMENTED NEUTROPHIL [3]: 675.33 CELLS/uL
BASOPHIL [3]: 0%
EOSINOPHIL [3]: 0%
ERYTHROCYTE COUNT [3]: 5.68 x10E6/uL
HEMATOCRIT [3]: 35.93%
HEMOGLOBIN [3]: 13.87 G/DL
LEUKOCYTE COUNT [3]: 8.83 x10E3/uL
LYMPHOCYTE [3]: 90%
MEAN CORPUSCULAR HEMOGLOBIN [3]: 24.47 pg
MEAN CORPUSCULAR HEMOGLOBIN CONCENTRATION [3]: 38.67 G/DL
MEAN CORPUSCULAR VOLUME [3]: 63.37 fL
MONOCYTE [3]: 2%
NEUTROPHIL [3]: 8%
NUCLEATED RED BLOOD CELLS [3]: 0 /100WBC
PLATELET COUNT [3]: 1308.33 x10E3/uL
ALANINE AMINOTRANSFERASE [3]: 86.67 u/L
ALBUMIN [3]: 4.03 G/DL
ALKALINE PHOSPHATASE [3]: 415.33 u/L
ASPARTATE AMINOTRANSFERASE [3]: 102 u/L
BLOOD UREA NITROGEN [3]: 16.67 mg/dL
CARBON DIOXIDE [3]: 31.33 mmol/L
CHLORIDE [3]: 100.33 MEQ/L
CHOLESTEROL [3]: 67.33 mg/dL
CREATINE PHOSPHOKINASE [3]: 224.33 u/L
CREATININE [3]: 0.19 mg/dL
GLUCOSE [3]: 146.33 mg/dL
LACTATE DEHYDROGENASE [3]: 136.33 u/L
LIPASE [3]: 11.67 u/L
PHOSPHORUS [3]: 11.97 mg/dL
POTASSIUM [3]: 5.51 MEQ/L
SODIUM [3]: 146.57 MEQ/L
TOTAL BILIRUBIN [3]: 0.17 mg/dL
TOTAL PROTEIN [3]: 5.6 G/DL
URIC ACID [3]: 0.57 mg/dL

Reference: ChEMBL document CHEMBL3885881, “DrugMatrix”
